Test results taken from publication PMC4379058, “The Biochemical Properties of the Arabidopsis Ecto-Nucleoside Triphosphate Diphosphohydrolase AtAPY1 Contradict a Direct Role in Purinergic Signaling” (PLoS ONE, 2015).

How the values were obtained:
Assay in all cases: discontinuous molybdate phosphate release assay
AtAPY1-δTM = target: T1, AtAPY1-δTM (Arabidopsis thaliana, UniProt Q9SQG2); type: biochemical
T1 construct: gene APY1; 45 kDa theoretical
T1 sequence (Q9SQG2 67-470): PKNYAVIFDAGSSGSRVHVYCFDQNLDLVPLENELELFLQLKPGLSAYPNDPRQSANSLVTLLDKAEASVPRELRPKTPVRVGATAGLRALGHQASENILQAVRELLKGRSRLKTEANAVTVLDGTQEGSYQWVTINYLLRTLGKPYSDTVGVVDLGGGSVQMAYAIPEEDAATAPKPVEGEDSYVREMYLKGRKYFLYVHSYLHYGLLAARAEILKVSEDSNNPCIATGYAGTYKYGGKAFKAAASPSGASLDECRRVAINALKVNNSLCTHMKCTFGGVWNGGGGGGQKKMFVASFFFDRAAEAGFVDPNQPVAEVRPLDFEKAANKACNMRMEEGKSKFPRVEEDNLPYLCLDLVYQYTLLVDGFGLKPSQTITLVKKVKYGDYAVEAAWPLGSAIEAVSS

AtAPY1 [1] = target: T2, AtAPY1 (Arabidopsis thaliana, UniProt Q9SQG2); type: biochemical; design: gene APY1; full-length with TM, C-terminal linker and His6 tag, HEK293 cells; Ni-NTA elution fraction, not enriched; 52 kDa theoretical
T2 sequence (Q9SQG2 1-471): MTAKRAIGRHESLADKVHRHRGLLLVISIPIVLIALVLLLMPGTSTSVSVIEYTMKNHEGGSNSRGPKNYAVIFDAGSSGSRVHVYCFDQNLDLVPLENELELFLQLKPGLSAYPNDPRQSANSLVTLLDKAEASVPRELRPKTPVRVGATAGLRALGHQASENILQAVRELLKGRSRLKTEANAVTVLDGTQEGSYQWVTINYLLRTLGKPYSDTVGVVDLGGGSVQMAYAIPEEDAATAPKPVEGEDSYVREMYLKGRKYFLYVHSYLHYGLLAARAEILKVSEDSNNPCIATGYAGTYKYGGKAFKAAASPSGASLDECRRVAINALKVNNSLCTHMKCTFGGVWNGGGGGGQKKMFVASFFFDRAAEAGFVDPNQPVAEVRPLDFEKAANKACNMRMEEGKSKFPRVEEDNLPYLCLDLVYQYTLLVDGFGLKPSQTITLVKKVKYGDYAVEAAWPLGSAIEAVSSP

AtAPY1 [2] = target: T2, AtAPY1; design: gene APY1; conditions: 3 mM UDP substrate, 1 mM MgCl2, pH 6.5, 30°C
AtAPY1-GFP = target: T3, AtAPY1-GFP (Arabidopsis thaliana, UniProt Q9SQG2); type: biochemical; conditions: 3 mM UDP substrate, 2 mM MgCl2, pH 6.5, 30°C; immobilised enzyme
T3 construct: gene APY1; full-length, C-terminal GFP fusion (GFP from residue 472; 80 kDa), 35S transgenic Arabidopsis seedlings, immobilised on anti-GFP plate
T3 sequence (Q9SQG2 1-471): T2 sequence (Q9SQG2 1-471)

Row | SMILES | discontinuous molybdate phosphate release assay (AtAPY1-δTM) | discontinuous molybdate phosphate release assay (AtAPY1 [1]) | % inhibition at 1 mM (AtAPY1 [2]) | % inhibition (AtAPY1-GFP)
1 | Nc1nc2c(ncn2[C@@H]2O[C@H](COP(=O)(O)OP(=O)(O)O)[C@@H](O)[C@H]2O)c(=O)[nH]1 [GDP] | AtAPY1 with or without TM is limited to the nucleotides GDP, IDP and UDP | only GDP, IDP and UDP were hydrolyzed by AtAPY1 |  | 
2 | O=c1ccn([C@@H]2O[C@H](COP(=O)(O)OP(=O)(O)O)[C@@H](O)[C@H]2O)c(=O)[nH]1 [UDP] | AtAPY1 with or without TM is limited to the nucleotides GDP, IDP and UDP | only GDP, IDP and UDP were hydrolyzed by AtAPY1 |  | 
3 | [O]=[V]([OH])([OH])[OH] [vanadate] |  |  | 54% | The same inhibition pattern was found for AtAPY1-GFP
